Our source for the relative viability values is the supplement of paper PMC10307832.

Assay in all cases: relative viability (nuclei count vs DMSO), 5 days (fraction); higher = more cells survive
Compound in the assay “EHT 1864 + Pemetrexed”: C1COCCN1CC2=CC(=O)C(=CO2)OCCCCCSC3=C4C=CC(=CC4=NC=C3)C(F)(F)F [EHT 1864] + Nc1nc2[nH]cc(CCc3ccc(C(=O)N[C@@H](CCC(=O)O)C(=O)O)cc3)c2c(=O)[nH]1 [Pemetrexed] (partner 0.2 µM)
In outline: (§1)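 One day after seeding in 1536-well plates, lung cancer cell lines were dosed by pin tool. Dosing was either single-drug or a fixed anchor-drug dose plus five library-drug doses (not always all listed) in √10 steps. After 5 days, nuclei were stained in one fix-and-stain step and counted on 4× images, and relative viability is the nuclei count of treated wells over that of vehicle wells, given as the median of duplicate plates.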

Compound in the assay “EHT 1864 + Olaparib”: C1COCCN1CC2=CC(=O)C(=CO2)OCCCCCSC3=C4C=CC(=CC4=NC=C3)C(F)(F)F [EHT 1864] + O=C(c1cc(Cc2n[nH]c(=O)c3ccccc23)ccc1F)N1CCN(C(=O)C2CC2)CC1 [Olaparib] (partner 8 µM)
In outline:
as §1

Compound in the assay “EHT 1864 + Alpelisib”: C1COCCN1CC2=CC(=O)C(=CO2)OCCCCCSC3=C4C=CC(=CC4=NC=C3)C(F)(F)F [EHT 1864] + Cc1nc(NC(=O)N2CCC[C@H]2C(N)=O)sc1-c1ccnc(C(C)(C)C(F)(F)F)c1 [Alpelisib] (partner 2 µM)
The method, boiled down:
as §1

Compound in the assay “EHT 1864 + Bortezomib”: C1COCCN1CC2=CC(=O)C(=CO2)OCCCCCSC3=C4C=CC(=CC4=NC=C3)C(F)(F)F [EHT 1864] + CC(C)C[C@H](NC(=O)[C@H](Cc1ccccc1)NC(=O)c1cnccn1)B(O)O [Bortezomib] (partner 0.002 µM)
In outline:
as §1

Regarding PC-3 [JPC-3], the relative viability in the assay with EHT 1864 + Pemetrexed (first compound 0.04 µM) came out at 1.07; with EHT 1864 + Pemetrexed (first compound 0.1265 µM), 0.944; with EHT 1864 + Pemetrexed (first compound 0.4 µM), 1.1; in the assay with EHT 1864 + Pemetrexed (first compound 1.265 µM), 1.09; in the assay with EHT 1864 + Pemetrexed (first compound 4 µM) it was 1.03; with EHT 1864 + Olaparib (first compound 0.04 µM) it was 1.15. Further, the relative viability with EHT 1864 + Olaparib (first compound 0.1265 µM) came to 1.04; with EHT 1864 + Olaparib (first compound 0.4 µM) it was 1.14; with EHT 1864 + Olaparib (first compound 1.265 µM), 1.03; with EHT 1864 + Olaparib (first compound 4 µM) it was 1.05; with EHT 1864 + Alpelisib (first compound 0.04 µM), 1.04; with EHT 1864 + Alpelisib (first compound 0.1265 µM), 0.944. The relative viability with EHT 1864 + Alpelisib (first compound 0.4 µM) came to 1.01; with EHT 1864 + Alpelisib (first compound 1.265 µM) it was 0.957; in the assay with EHT 1864 + Alpelisib (first compound 4 µM), 0.987; in the assay with EHT 1864 + Bortezomib (first compound 0.04 µM), 0.83; with EHT 1864 + Bortezomib (first compound 0.1265 µM) it was 0.737; in the assay with EHT 1864 + Bortezomib (first compound 0.4 µM) it was 0.895. For the same cell line, the relative viability with EHT 1864 + Bortezomib (first compound 1.265 µM) was 0.853; with EHT 1864 + Bortezomib (first compound 4 µM), 0.763.
For the cell line PC-14, the relative viability with EHT 1864 + Pemetrexed (first compound 0.04 µM) is 0.121; in the assay with EHT 1864 + Pemetrexed (first compound 0.1265 µM) it was 0.124; with EHT 1864 + Pemetrexed (first compound 0.4 µM) it was 0.137; with EHT 1864 + Pemetrexed (first compound 1.265 µM) it was 0.133; with EHT 1864 + Pemetrexed (first compound 4 µM) it was 0.133; in the assay with EHT 1864 + Olaparib (first compound 0.04 µM) it was 0.264. In addition, the relative viability was determined as 0.36 with EHT 1864 + Olaparib (first compound 0.1265 µM); 0.266 with EHT 1864 + Olaparib (first compound 0.4 µM); 0.331 with EHT 1864 + Olaparib (first compound 1.265 µM); 0.265 with EHT 1864 + Olaparib (first compound 4 µM); 0.916 with EHT 1864 + Alpelisib (first compound 0.04 µM); 0.888 with EHT 1864 + Alpelisib (first compound 0.1265 µM). For the same cell line, the relative viability with EHT 1864 + Alpelisib (first compound 0.4 µM) came out at 0.952; with EHT 1864 + Alpelisib (first compound 1.265 µM) it was 0.901; in the assay with EHT 1864 + Alpelisib (first compound 4 µM) it was 0.846; in the assay with EHT 1864 + Bortezomib (first compound 0.04 µM), 0.977; in the assay with EHT 1864 + Bortezomib (first compound 0.1265 µM), 0.86; with EHT 1864 + Bortezomib (first compound 0.4 µM) it was 0.877. The relative viability in the assay with EHT 1864 + Bortezomib (first compound 1.265 µM) amounted to 0.837; with EHT 1864 + Bortezomib (first compound 4 µM) it was 0.778.
Regarding RERF-LC-KJ, the relative viability with EHT 1864 + Pemetrexed (first compound 0.04 µM) was found to be 0.46; in the assay with EHT 1864 + Pemetrexed (first compound 0.1265 µM), 0.443; in the assay with EHT 1864 + Pemetrexed (first compound 0.4 µM) it was 0.484; with EHT 1864 + Pemetrexed (first compound 1.265 µM), 0.462; with EHT 1864 + Pemetrexed (first compound 4 µM), 0.504; with EHT 1864 + Olaparib (first compound 0.04 µM), 0.902. The relative viability with EHT 1864 + Olaparib (first compound 0.1265 µM) was determined as 0.86; with EHT 1864 + Olaparib (first compound 0.4 µM) it was 0.849; in the assay with EHT 1864 + Olaparib (first compound 1.265 µM), 0.913; with EHT 1864 + Olaparib (first compound 4 µM) it was 0.76; in the assay with EHT 1864 + Alpelisib (first compound 0.04 µM) it was 0.759; with EHT 1864 + Alpelisib (first compound 0.1265 µM) it was 0.743. Moreover, the relative viability with EHT 1864 + Alpelisib (first compound 0.4 µM) is 0.755; in the assay with EHT 1864 + Alpelisib (first compound 1.265 µM), 0.947; in the assay with EHT 1864 + Alpelisib (first compound 4 µM) it was 0.776; with EHT 1864 + Bortezomib (first compound 0.04 µM), 1.05; with EHT 1864 + Bortezomib (first compound 0.1265 µM) it was 0.948; with EHT 1864 + Bortezomib (first compound 0.4 µM), 1.04. Also, the results for the relative viability in the assay with EHT 1864 + Bortezomib (first compound 1.265 µM) and with EHT 1864 + Bortezomib (first compound 4 µM) were 0.951 and 1.15, respectively.
On to SK-LU-1, for which the relative viability was determined as 0.982 with EHT 1864 + Pemetrexed (first compound 0.04 µM); 0.935 in the assay with EHT 1864 + Pemetrexed (first compound 0.1265 µM); 1.03 with EHT 1864 + Pemetrexed (first compound 0.4 µM); 0.872 with EHT 1864 + Pemetrexed (first compound 1.265 µM); 0.901 in the assay with EHT 1864 + Pemetrexed (first compound 4 µM); 0.464 in the assay with EHT 1864 + Olaparib (first compound 0.04 µM). In addition, the relative viability with EHT 1864 + Olaparib (first compound 0.1265 µM) turned out to be 0.515; in the assay with EHT 1864 + Olaparib (first compound 0.4 µM) it was 0.471; with EHT 1864 + Olaparib (first compound 1.265 µM), 0.451; with EHT 1864 + Olaparib (first compound 4 µM), 0.447; with EHT 1864 + Alpelisib (first compound 0.04 µM) it was 1.02; in the assay with EHT 1864 + Alpelisib (first compound 0.1265 µM) it was 1.02. Further, the relative viability came to 0.928 in the assay with EHT 1864 + Alpelisib (first compound 0.4 µM); 0.996 in the assay with EHT 1864 + Alpelisib (first compound 1.265 µM); 0.815 with EHT 1864 + Alpelisib (first compound 4 µM); 1.22 with EHT 1864 + Bortezomib (first compound 0.04 µM); 1.37 in the assay with EHT 1864 + Bortezomib (first compound 0.4 µM); 1.37 in the assay with EHT 1864 + Bortezomib (first compound 1.265 µM). In the assay with EHT 1864 + Bortezomib (first compound 4 µM), the relative viability came to 1.07.
As to SW 1573, the relative viability with EHT 1864 + Pemetrexed (first compound 0.04 µM) came out at 0.737; with EHT 1864 + Pemetrexed (first compound 0.4 µM), 0.78; in the assay with EHT 1864 + Pemetrexed (first compound 1.265 µM), 0.869; with EHT 1864 + Pemetrexed (first compound 4 µM), 0.775; in the assay with EHT 1864 + Olaparib (first compound 0.04 µM), 0.499; with EHT 1864 + Olaparib (first compound 0.1265 µM), 0.515. Also, the relative viability worked out at 0.451 in the assay with EHT 1864 + Olaparib (first compound 0.4 µM); 0.472 with EHT 1864 + Olaparib (first compound 1.265 µM); 0.423 with EHT 1864 + Olaparib (first compound 4 µM); 0.772 in the assay with EHT 1864 + Alpelisib (first compound 0.04 µM); 0.896 with EHT 1864 + Alpelisib (first compound 0.1265 µM); 0.737 in the assay with EHT 1864 + Alpelisib (first compound 0.4 µM). Moreover, the relative viability in the assay with EHT 1864 + Alpelisib (first compound 1.265 µM) was 0.608; in the assay with EHT 1864 + Alpelisib (first compound 4 µM), 0.719; in the assay with EHT 1864 + Bortezomib (first compound 0.04 µM) it was 1.09; in the assay with EHT 1864 + Bortezomib (first compound 0.1265 µM) it was 0.923; with EHT 1864 + Bortezomib (first compound 0.4 µM), 1.01; with EHT 1864 + Bortezomib (first compound 1.265 µM), 0.975. The relative viability with EHT 1864 + Bortezomib (first compound 4 µM) was found to be 0.674.
With UMC-11, the relative viability with EHT 1864 + Pemetrexed (first compound 0.04 µM) is 0.763; in the assay with EHT 1864 + Pemetrexed (first compound 0.1265 µM), 0.706; with EHT 1864 + Pemetrexed (first compound 0.4 µM), 0.843; in the assay with EHT 1864 + Pemetrexed (first compound 1.265 µM), 0.764; with EHT 1864 + Pemetrexed (first compound 4 µM) it was 0.888; with EHT 1864 + Olaparib (first compound 0.04 µM), 0.379. Further, the relative viability in the assay with EHT 1864 + Olaparib (first compound 0.1265 µM) came to 0.383; in the assay with EHT 1864 + Olaparib (first compound 0.4 µM), 0.426; with EHT 1864 + Olaparib (first compound 1.265 µM) it was 0.383; in the assay with EHT 1864 + Olaparib (first compound 4 µM) it was 0.356; with EHT 1864 + Alpelisib (first compound 0.04 µM), 0.887; with EHT 1864 + Alpelisib (first compound 0.1265 µM) it was 1.01. Moreover, the relative viability with EHT 1864 + Alpelisib (first compound 0.4 µM) is 0.976; with EHT 1864 + Alpelisib (first compound 1.265 µM) it was 0.962; in the assay with EHT 1864 + Alpelisib (first compound 4 µM), 1.02; with EHT 1864 + Bortezomib (first compound 0.04 µM) it was 0.675; in the assay with EHT 1864 + Bortezomib (first compound 0.1265 µM), 0.521; in the assay with EHT 1864 + Bortezomib (first compound 0.4 µM) it was 0.719. Also, the values for the relative viability in the assay with EHT 1864 + Bortezomib (first compound 1.265 µM) and in the assay with EHT 1864 + Bortezomib (first compound 4 µM) were 0.255 and 0.547, respectively.
